Measured values taken from patent US20240317792A1, “CYCLIC DINUCLEOTIDE METAL COMPOUND, AND PREPARATION AND APPLICATION THEREOF” (HANGZHOU XINGAO BIOTECHNOLOGY CO., LTD., priority 2022, published 2024).

Assays:
[1] = test system: APP/PSI transgenic AD model mice; test: Morris water maze spatial probe test, cognitive ability of AD model mice; assay type: in vivo; settings: 10 mg/kg intraperitoneal injection once every 2 days for 60 days
Source text: (§1) Experimental materials, purchased from Shanghai Model Organisms Center Inc, were APP/PSI transgenic AD model mice, aged 4 months old and weighing 24-26 g. The AD model mice were randomly divided into 7 groups (10 mice in each group). The 7 groups were listed as follows: A: AD model group, as a negative control group (administration of normal saline); B: cGAMP group, as a positive control group (administration of cyclic dinucleotide); C: [Li2(cGAMP)] group (administration of lithium cyclic dinucleotide prepared in Example 1); D: [Mg(cGAMP)] group (administration of magnesium cyclic dinucleotide prepared in Example 2); E: [Zn(cGAMP)] group (administration of zinc cyclic dinucleotide prepared in Example 5); F: [Mn(cGAMP)] group (administration of manganese cyclic dinucleotide prepared in Example 3); G: [Fe(cGAMP)] group (administration of ferrous cyclic dinucleotide prepared in Example 4). The administration in groups C-G was performed as follows. The powdered cyclic dinucleotide metal compounds were prepared into solutions of required concentration with normal saline, respectively. The administration dosage was 10 mg/kg, and the administration was performed via intraperitoneal injection once every 2 days for 60 consecutive days.
The Morris water maze test was performed in a round pool, 1 m in diameter, 50 cm high and 30 cm deep with a white bottom of the pool. Water temperature of the Morris water maze was 23±2° C. Four equidistant points, N, E, S and W, were marked on a pool wall as four starting points for tests. The pool was divided into four quadrants, and a platform, which was equidistant from the pool wall and a center of the pool, was placed in the third quadrant. The platform was immersed under water at a depth of 1 cm, so that the platform was not visible. A lot of reference clues (the reference clues were triangles, quadrangles, circles, and diamonds with different colors placed in each quadrant) were pasted around the pool and kept constant for the AD model mice to locate the platform.
A place navigation test was performed for 6 days, and the AD model mice were subjected to training 4 times per day at fixed time spans. At the beginning of the training, the platform was placed in the […]. An AD model mouse was placed into the water facing the pool wall at any one of the four starting points. A record system was used to record time and a swimming path that the AD model mouse found the platform. The AD model mouse was placed into the water at different four starting points (in different quadrants) in the 4-time-training. The AD model mouse found the platform and rested on the platform for 10 seconds followed by next test. Or if the AD model mouse could not find the platform within 90 seconds (a latency was recorded as 90 seconds), the AD model mouse was guided to the platform by an experimenter and rested for 10 seconds followed by next test.
24 h after the place navigation test, the platform was removed. Then the AD model mouse was placed into the water in the third quadrant, the swimming path in 180 s was recorded. Remain time and a number of the AD model mouse crossing through a location of the platform of the AD model mouse in a target quadrant (the third quadrant) were recorded to observe the spatial localization ability of the AD model mouse. SPSS10.0 software was used to process, and one-way analysis of variance (ANOVA) was adopted to compare significance of difference between the 7 groups.

[2] = test system: amyloid plaques in the brains of the AD model mice; test: Thioflavin S dyeing of amyloid plaque deposition in brains of AD model mice; assay type: in vivo; settings: 10 mg/kg intraperitoneal once every 2 days, 60 days
Source text: as §1
This example conducted a Thioflavin S dyeing experiment including the following steps. 60 days after the drug administration, brain tissues of the AD model mice were taken and subjected to fixing, paraffin embedding, section, dimethylbenzene dewaxing, gradient dehydration with ethanol and washing with tris buffered saline (TBS) three times. 0.3 wt. % of Thioflavin S (dissolved in 50 wt. % of ethanol) was dropped onto the brain tissues. The brain tissues were incubated for 10 min followed by washing with 50 wt. % of ethanol, PBS-washing, shade drying and sealing. A laser scanning confocal microscope (Leica, Germany) was used to detect changes of an amount of amyloid plaque deposition in the brains of the AD model mice.

[3] = test system: Dendritic cells (DCs) (CD40\CD80\CD86\MHCII); test: Flow cytometry of dendritic cell activation markers after immunization; assay type: in vivo, C57BL/6 ordinary mice; settings: fluorescence intensity (MFI), after 14 days of immunization
Source text: Experimental animals: C57BL/6 ordinary mice, male, weighing 20-22 grams, 7-8 weeks old, purchased from Shanghai SLAC Laboratory Animal Co. Ltd.
The mice were randomly divided into 8 groups (10 mice in each group). The 8 groups were as listed follows: A: Negative control group (isotype control antibody group); B: blank group; C: cyclic dinucleotide group; D: [Li2(cGAMP)] group; E: [Mg(cGAMP)] group; F: [Zn(cGAMP)] group; G: [Mn(cGAMP)] group; and H: [Fe(cGAMP)] group. Isotype control flow antibody was purchased from eBiosciences, antibody magnetic strain was purchased from Militeny Biotech, and flow cytometry was purchased from BD company. After 14 days of immunization (immunization process was the same as that in the Example 12), spleens and lung tissues of the mice were collected, respectively mashed, filtered through 40 micron pores followed by 1000 rpm of centrifugation for 10 min to solate unlysed immune cells. Dendritic cells (DCs) (CD40\CD80\CD86\MHCII), T(CD8+) cells were separated, and added with corresponding FAC antibodies (diluted with Fluorescence-Activated Cell Sorting (FACS) buffer). Isotype control antibody was used as negative control. After antibody addition, the DCs and T (CD8+) cells were incubate for 1 h, centrifuged and washed by phosphate buffer saline (PBS) followed by analysis by the flow cytometry to sort suitable cells. Fluorescence intensity (MFI) of sorted cells was measured.

Row | SMILES | Percentage of time of the AD model mice crossing through the platform in the third quadrant [1] | Average points of amyloid plaque fluorescence intensity in the brain tissues of the AD mice (field of vision) [2] | Spleen CD40 [3] | Spleen CD80 [3] | Spleen CD86 [3] | Spleen MGCII [3]
1 | Nc1nc2c(ncn2[C@@H]2O[C@@H]3COP(=O)([O-])O[C@H]4[C@@H](O)[C@H](n5cnc6c(N)ncnc65)O[C@@H]4COP(=O)([O-])O[C@@H]2[C@@H]3O)c(=O)[nH]1.[Zn+2] [[Zn(cGAMP)], zinc cyclic dinucleotide] | 0.86 ± 0.16% | 360 ± 75 | 264.7 | 245.7 | 42.6 | 424.5
2 | Nc1nc2c(ncn2C2OC3COP(=O)([O-])OC4C(COP(=O)([O-])OC2C3O)OC(n2cnc3c(N)ncnc32)C4O)c(=O)[nH]1.[Mn+2] (stereo not drawn) [[Mn(cGAMP)], manganese cyclic dinucleotide] | 0.83 ± 0.21% | 390 ± 87 | 255.9 | 132.6 | 26.3 | 276.3
3 | Nc1nc2c(ncn2[C@@H]2O[C@@H]3COP(=O)([O-])O[C@H]4[C@@H](O)[C@H](n5cnc6c(N)ncnc65)O[C@@H]4COP(=O)([O-])O[C@@H]2[C@@H]3O)c(=O)[nH]1.[Li+].[Li+] [[Li2(cGAMP)], lithium cyclic dinucleotide] | 0.91 ± 0.18% | 165 ± 75 | 136.2 | 157.6 | 21.7 | 250.8
4 | Nc1nc2c(ncn2[C@@H]2O[C@@H]3COP(=O)(O)O[C@H]4[C@@H](O)[C@H](n5cnc6c(N)ncnc65)O[C@@H]4COP(=O)(O)O[C@@H]2[C@@H]3O)c(=O)[nH]1 [cGAMP, 2′3′-cGAMP, reference compound] | 0.62 ± 0.17% | 1790 ± 180 | 120.5 | 112.1 | 16.5 | 208.1
5 | Nc1nc2c(ncn2[C@@H]2O[C@@H]3COP(=O)([O-])O[C@H]4[C@@H](O)[C@H](n5cnc6c(N)ncnc65)O[C@@H]4COP(=O)([O-])O[C@@H]2[C@@H]3O)c(=O)[nH]1.[Mg+2] [[Mg(cGAMP)], magnesium cyclic dinucleotide] | 0.78 ± 0.10% | 480 ± 80 | 156.6 | 234.6 | 36.8 | 338.2
6 | Nc1nc2c(ncn2C2OC3COP(=O)([O-])OC4C(COP(=O)([O-])OC2C3O)OC(n2cnc3c(N)ncnc32)C4O)c(=O)[nH]1.[Fe+2] (stereo not drawn) [[Fe(cGAMP)], ferrous cyclic dinucleotide] | 0.81 ± 0.23% | 410 ± 91 | 236.8 | 134.6 | 24.1 | 247.1
